Reference: PubChem BioAssay (NCI)
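GI50 = concentration required for 50% inhibition of growth. TGI: concentration producing complete growth inhibition.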

How the values were obtained:
Assay in all cases: inhibition of tumour cell growth, NCI panel, 384-well format
786-0 renal = system: 786-0 renal
A498 renal = system: A498 renal
A549 NSCLC = system: A549 NSCLC
ACHN renal = system: ACHN renal
BT-549 breast = system: BT-549 breast
CAKI-1 renal = system: CAKI-1 renal
CCRF-CEM leukemia = system: CCRF-CEM leukemia
COLO 205 colon = system: COLO 205 colon
DU-145 prostate = system: DU-145 prostate
EKVX NSCLC = system: EKVX NSCLC
HCC-2998 colon = system: HCC-2998 colon
HCT-116 colon = system: HCT-116 colon
HCT-15 colon = system: HCT-15 colon
HL-60(TB) leukemia = system: HL-60(TB) leukemia
HOP-62 NSCLC = system: HOP-62 NSCLC
HOP-92 NSCLC = system: HOP-92 NSCLC
HS 578T breast = system: HS 578T breast
HT29 colon = system: HT29 colon
IGROV1 ovarian = system: IGROV1 ovarian
KM12 colon = system: KM12 colon
LOX IMVI melanoma = system: LOX IMVI melanoma
M14 melanoma = system: M14 melanoma
MALME-3M melanoma = system: MALME-3M melanoma
MCF7 breast = system: MCF7 breast
MDA-MB-231 breast = system: MDA-MB-231 breast
MDA-MB-435 melanoma = system: MDA-MB-435 melanoma
MDA-MB-468 breast = system: MDA-MB-468 breast
MOLT-4 leukemia = system: MOLT-4 leukemia
NCI-H226 lung = system: NCI-H226 lung
NCI-H23 lung = system: NCI-H23 lung
NCI-H322M lung = system: NCI-H322M lung
NCI-H460 NSCLC = system: NCI-H460 NSCLC
NCI-H522 lung = system: NCI-H522 lung
NCI/ADR-RES ovarian = system: NCI/ADR-RES ovarian
OVCAR-3 ovarian = system: OVCAR-3 ovarian
OVCAR-4 ovarian = system: OVCAR-4 ovarian
OVCAR-5 ovarian = system: OVCAR-5 ovarian
OVCAR-8 ovarian = system: OVCAR-8 ovarian
PC-3 prostate = system: PC-3 prostate
RPMI-8226 leukemia = system: RPMI-8226 leukemia
RXF 393 renal = system: RXF 393 renal
SF-268 CNS = system: SF-268 CNS
SF-295 CNS = system: SF-295 CNS
SF-539 CNS = system: SF-539 CNS
SK-MEL-28 melanoma = system: SK-MEL-28 melanoma
SK-MEL-5 melanoma = system: SK-MEL-5 melanoma
SK-OV-3 ovarian = system: SK-OV-3 ovarian
SN12C renal = system: SN12C renal
SNB-19 CNS = system: SNB-19 CNS
SNB-75 CNS = system: SNB-75 CNS
SW-620 colon = system: SW-620 colon
T-47D breast = system: T-47D breast
TK-10 renal = system: TK-10 renal
U251 glioblastoma = system: U251 glioblastoma
UACC-257 melanoma = system: UACC-257 melanoma
UACC-62 melanoma = system: UACC-62 melanoma
UO-31 renal = system: UO-31 renal

For COc1cc2ncnc(Oc3cccc(NC(=O)Nc4cc(C(C)(C)C(F)(F)F)on4)c3)c2cc1OC, which GI50 (786-0 renal) is on record?
The GI50 was 1520 nM.

What about the TGI (786-0 renal) of the same molecule?
Its TGI is 3770 nM.

What about the GI50 (A498 renal) of the same molecule?
Its GI50 is 810 nM.

What about the TGI (A498 renal) of the same molecule?
The TGI was 5310 nM.

And the GI50 (A549 NSCLC)?
Its GI50 is 1260 nM.

What about the TGI (A549 NSCLC) of the same molecule?
The TGI was 5570 nM.

And the GI50 (ACHN renal)?
Its GI50 is 399 nM.

And the TGI (ACHN renal)?
The TGI was 2390 nM.

What about the GI50 (BT-549 breast) of the same molecule?
Its GI50 is 1660 nM.

What about the TGI (BT-549 breast) of the same molecule?
The TGI was 3080 nM.

And the GI50 (CAKI-1 renal)?
The GI50 was 613 nM.

And the TGI (CAKI-1 renal)?
The TGI was 3600 nM.

And the GI50 (CCRF-CEM leukemia)?
The GI50 was 1450 nM.

What about the TGI (CCRF-CEM leukemia) of the same molecule?
Its TGI is 2770 nM.

What about the GI50 (COLO 205 colon) of the same molecule?
The GI50 was 48.1 nM.

What about the TGI (COLO 205 colon) of the same molecule?
The TGI was 1590 nM.

What about the GI50 (DU-145 prostate) of the same molecule?
The GI50 was 2790 nM.

What about the TGI (DU-145 prostate) of the same molecule?
Its TGI is 11000 nM.

And the GI50 (EKVX NSCLC)?
Its GI50 is 1050 nM.

And the TGI (EKVX NSCLC)?
Its TGI is 3290 nM.

And the GI50 (HCC-2998 colon)?
The GI50 was 1230 nM.

What about the TGI (HCC-2998 colon) of the same molecule?
The TGI was 2570 nM.

What about the GI50 (HCT-116 colon) of the same molecule?
Its GI50 is 581 nM.

What about the TGI (HCT-116 colon) of the same molecule?
Its TGI is 1970 nM.

And the GI50 (HCT-15 colon)?
The GI50 was 1860 nM.

And the TGI (HCT-15 colon)?
Its TGI is 6280 nM.

What about the GI50 (HL-60(TB) leukemia) of the same molecule?
The GI50 was 309 nM.

What about the TGI (HL-60(TB) leukemia) of the same molecule?
Its TGI is 1750 nM.

What about the GI50 (HOP-62 NSCLC) of the same molecule?
Its GI50 is 1530 nM.

And the TGI (HOP-62 NSCLC)?
Its TGI is 3010 nM.

And the GI50 (HOP-92 NSCLC)?
The GI50 was 1260 nM.

And the TGI (HOP-92 NSCLC)?
Its TGI is 2550 nM.

What about the GI50 (HS 578T breast) of the same molecule?
The GI50 was 1540 nM.

What about the TGI (HS 578T breast) of the same molecule?
Its TGI is 2990 nM.

And the GI50 (HT29 colon)?
The GI50 was 174 nM.

What about the TGI (HT29 colon) of the same molecule?
The TGI was 1650 nM.

What about the GI50 (IGROV1 ovarian) of the same molecule?
Its GI50 is 222 nM.

What about the TGI (IGROV1 ovarian) of the same molecule?
Its TGI is 1270 nM.

And the GI50 (KM12 colon)?
The GI50 was 1920 nM.

And the TGI (KM12 colon)?
The TGI was 4430 nM.

And the GI50 (LOX IMVI melanoma)?
The GI50 was 187 nM.

And the TGI (LOX IMVI melanoma)?
The TGI was 1020 nM.

And the GI50 (M14 melanoma)?
The GI50 was 19.3 nM.

And the TGI (M14 melanoma)?
The TGI was 214 nM.

And the GI50 (MALME-3M melanoma)?
Its GI50 is 14.6 nM.

What about the TGI (MALME-3M melanoma) of the same molecule?
Its TGI is 69.3 nM.

What about the GI50 (MCF7 breast) of the same molecule?
The GI50 was 1970 nM.

What about the TGI (MCF7 breast) of the same molecule?
The TGI was 7650 nM.

And the GI50 (MDA-MB-231 breast)?
Its GI50 is 192 nM.

What about the TGI (MDA-MB-231 breast) of the same molecule?
Its TGI is 3980 nM.

What about the GI50 (MDA-MB-435 melanoma) of the same molecule?
Its GI50 is 118 nM.

And the TGI (MDA-MB-435 melanoma)?
The TGI was 1940 nM.

And the GI50 (MDA-MB-468 breast)?
Its GI50 is 747 nM.

What about the TGI (MDA-MB-468 breast) of the same molecule?
Its TGI is 2310 nM.

What about the GI50 (MOLT-4 leukemia) of the same molecule?
The GI50 was 1110 nM.

What about the TGI (MOLT-4 leukemia) of the same molecule?
The TGI was 2310 nM.

And the GI50 (NCI-H226 lung)?
The GI50 was 384 nM.

And the TGI (NCI-H226 lung)?
The TGI was 7550 nM.

What about the GI50 (NCI-H23 lung) of the same molecule?
The GI50 was 168 nM.

And the TGI (NCI-H23 lung)?
Its TGI is 1470 nM.

And the GI50 (NCI-H322M lung)?
Its GI50 is 865 nM.

What about the TGI (NCI-H322M lung) of the same molecule?
The TGI was 5180 nM.

What about the GI50 (NCI-H460 NSCLC) of the same molecule?
Its GI50 is 1540 nM.

What about the TGI (NCI-H460 NSCLC) of the same molecule?
Its TGI is 4460 nM.

And the GI50 (NCI-H522 lung)?
The GI50 was 242 nM.

What about the TGI (NCI-H522 lung) of the same molecule?
Its TGI is 1610 nM.

What about the GI50 (NCI/ADR-RES ovarian) of the same molecule?
The GI50 was 2030 nM.

And the TGI (NCI/ADR-RES ovarian)?
Its TGI is 4780 nM.

What about the GI50 (OVCAR-3 ovarian) of the same molecule?
Its GI50 is 1750 nM.

And the TGI (OVCAR-3 ovarian)?
The TGI was 4600 nM.

What about the GI50 (OVCAR-4 ovarian) of the same molecule?
The GI50 was 3140 nM.

What about the TGI (OVCAR-4 ovarian) of the same molecule?
Its TGI is 12400 nM.

What about the GI50 (OVCAR-5 ovarian) of the same molecule?
Its GI50 is 1080 nM.

What about the TGI (OVCAR-5 ovarian) of the same molecule?
Its TGI is 4570 nM.

What about the GI50 (OVCAR-8 ovarian) of the same molecule?
Its GI50 is 2300 nM.

What about the TGI (OVCAR-8 ovarian) of the same molecule?
Its TGI is 9640 nM.

What about the GI50 (PC-3 prostate) of the same molecule?
The GI50 was 2510 nM.

And the TGI (PC-3 prostate)?
The TGI was 5730 nM.

What about the GI50 (RPMI-8226 leukemia) of the same molecule?
The GI50 was 1760 nM.

And the TGI (RPMI-8226 leukemia)?
The TGI was 3140 nM.

And the GI50 (RXF 393 renal)?
The GI50 was 1540 nM.

And the TGI (RXF 393 renal)?
Its TGI is 3440 nM.

What about the GI50 (SF-268 CNS) of the same molecule?
The GI50 was 216 nM.

What about the TGI (SF-268 CNS) of the same molecule?
Its TGI is 1100 nM.

And the GI50 (SF-295 CNS)?
The GI50 was 2060 nM.

What about the TGI (SF-295 CNS) of the same molecule?
Its TGI is 4520 nM.

What about the GI50 (SF-539 CNS) of the same molecule?
The GI50 was 1350 nM.

And the TGI (SF-539 CNS)?
Its TGI is 2780 nM.

And the GI50 (SK-MEL-28 melanoma)?
Its GI50 is 35.1 nM.

And the TGI (SK-MEL-28 melanoma)?
Its TGI is 541 nM.

And the GI50 (SK-MEL-5 melanoma)?
Its GI50 is 206 nM.

What about the TGI (SK-MEL-5 melanoma) of the same molecule?
Its TGI is 1720 nM.

What about the GI50 (SK-OV-3 ovarian) of the same molecule?
The GI50 was 871 nM.

And the TGI (SK-OV-3 ovarian)?
Its TGI is 3140 nM.

What about the GI50 (SN12C renal) of the same molecule?
Its GI50 is 850 nM.

And the TGI (SN12C renal)?
The TGI was 3280 nM.

And the GI50 (SNB-19 CNS)?
The GI50 was 4200 nM.

And the TGI (SNB-19 CNS)?
The TGI was 14000 nM.

What about the GI50 (SNB-75 CNS) of the same molecule?
Its GI50 is 1860 nM.

And the TGI (SNB-75 CNS)?
The TGI was 3950 nM.

What about the GI50 (SW-620 colon) of the same molecule?
The GI50 was 1180 nM.

And the TGI (SW-620 colon)?
The TGI was 3670 nM.

What about the GI50 (T-47D breast) of the same molecule?
Its GI50 is 1110 nM.

What about the TGI (T-47D breast) of the same molecule?
The TGI was 3440 nM.

And the GI50 (TK-10 renal)?
Its GI50 is 1690 nM.

And the TGI (TK-10 renal)?
Its TGI is 4030 nM.

What about the GI50 (U251 glioblastoma) of the same molecule?
The GI50 was 1670 nM.

And the TGI (U251 glioblastoma)?
Its TGI is 3170 nM.

What about the GI50 (UACC-257 melanoma) of the same molecule?
The GI50 was 57.5 nM.

What about the TGI (UACC-257 melanoma) of the same molecule?
The TGI was 667 nM.

What about the GI50 (UACC-62 melanoma) of the same molecule?
Its GI50 is 17.8 nM.

And the TGI (UACC-62 melanoma)?
Its TGI is 267 nM.

What about the GI50 (UO-31 renal) of the same molecule?
Its GI50 is 976 nM.

And the TGI (UO-31 renal)?
Its TGI is 3150 nM.
